According to paper PMC6848746 (Psychopharmacology, 2019):

Columns and labels:
DAT [1] = target: DAT (Rattus norvegicus, UniProt P23977); assay: DAT-mediated release of [3H]MPP+ from rat brain synaptosomes; type: biochemical; conditions: for DAT/NET ratio: (DAT EC50)^-1 ÷ (NET EC50)^-1; for DAT/NET ratio / DAT/SERT ratio: higher value = greater DAT selectivity; for DAT/SERT ratio: (DAT EC50)^-1 ÷ (SERT EC50)^-1; for Emax: read-out: DAT-mediated release Emax; for fold lower release potency at DAT: relative to SERT (MDAI: relative to SERT and NET), synaptosomal release
5-HT1D = 5-HT1D (Homo sapiens, UniProt P28221); assay: Radioligand binding
5-HT1E = 5-HT1E (Homo sapiens, UniProt P28566); assay: Radioligand binding
5-HT2A = 5-HT2A (Homo sapiens, UniProt P28223); assay: Radioligand binding
5-HT2B = 5-HT2B (Homo sapiens, UniProt P41595); assay: Radioligand binding
5-HT5A = 5-HT5A (Homo sapiens, UniProt P47898); assay: Radioligand binding
α1B = target: T1, α1B (Homo sapiens, UniProt P35368); assay: Radioligand binding
T1 sequence (P35368 1-520): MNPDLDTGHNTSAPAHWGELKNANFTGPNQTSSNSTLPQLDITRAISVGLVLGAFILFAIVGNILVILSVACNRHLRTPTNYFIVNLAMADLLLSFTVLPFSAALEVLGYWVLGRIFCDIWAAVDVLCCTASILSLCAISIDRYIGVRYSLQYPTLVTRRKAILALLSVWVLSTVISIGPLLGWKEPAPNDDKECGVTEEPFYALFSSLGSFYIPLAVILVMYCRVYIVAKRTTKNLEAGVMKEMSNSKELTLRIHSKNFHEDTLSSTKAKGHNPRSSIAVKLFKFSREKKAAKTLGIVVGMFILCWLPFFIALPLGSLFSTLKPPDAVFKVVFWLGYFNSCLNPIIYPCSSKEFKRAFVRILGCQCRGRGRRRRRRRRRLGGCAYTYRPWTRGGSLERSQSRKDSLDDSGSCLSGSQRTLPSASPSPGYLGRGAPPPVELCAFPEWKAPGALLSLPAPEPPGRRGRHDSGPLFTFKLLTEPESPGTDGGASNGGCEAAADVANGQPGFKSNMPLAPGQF

α1D = target: T2, α1D (Homo sapiens, UniProt P25100); assay: Radioligand binding
T2 sequence (P25100 1-572): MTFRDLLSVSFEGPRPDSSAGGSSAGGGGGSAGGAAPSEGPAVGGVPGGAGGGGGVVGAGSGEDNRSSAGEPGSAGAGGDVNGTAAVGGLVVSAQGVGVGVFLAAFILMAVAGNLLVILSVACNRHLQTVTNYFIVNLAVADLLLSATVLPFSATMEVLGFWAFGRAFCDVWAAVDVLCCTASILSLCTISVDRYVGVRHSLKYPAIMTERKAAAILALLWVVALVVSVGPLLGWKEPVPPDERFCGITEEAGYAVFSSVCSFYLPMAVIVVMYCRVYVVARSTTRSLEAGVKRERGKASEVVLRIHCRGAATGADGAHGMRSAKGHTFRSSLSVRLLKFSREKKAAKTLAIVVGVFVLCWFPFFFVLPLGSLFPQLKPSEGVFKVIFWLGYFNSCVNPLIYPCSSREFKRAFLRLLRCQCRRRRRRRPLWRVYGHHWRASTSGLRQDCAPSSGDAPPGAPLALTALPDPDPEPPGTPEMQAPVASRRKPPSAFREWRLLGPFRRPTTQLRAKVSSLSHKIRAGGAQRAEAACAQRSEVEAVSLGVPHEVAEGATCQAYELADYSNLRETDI

β1 = β1 (Homo sapiens, UniProt P08588); assay: Radioligand binding
β2 = β2 (Homo sapiens, UniProt P07550); assay: Radioligand binding
D4 = target: T3, D4 (Homo sapiens, UniProt P21917); assay: Radioligand binding
T3 sequence (P21917 1-419): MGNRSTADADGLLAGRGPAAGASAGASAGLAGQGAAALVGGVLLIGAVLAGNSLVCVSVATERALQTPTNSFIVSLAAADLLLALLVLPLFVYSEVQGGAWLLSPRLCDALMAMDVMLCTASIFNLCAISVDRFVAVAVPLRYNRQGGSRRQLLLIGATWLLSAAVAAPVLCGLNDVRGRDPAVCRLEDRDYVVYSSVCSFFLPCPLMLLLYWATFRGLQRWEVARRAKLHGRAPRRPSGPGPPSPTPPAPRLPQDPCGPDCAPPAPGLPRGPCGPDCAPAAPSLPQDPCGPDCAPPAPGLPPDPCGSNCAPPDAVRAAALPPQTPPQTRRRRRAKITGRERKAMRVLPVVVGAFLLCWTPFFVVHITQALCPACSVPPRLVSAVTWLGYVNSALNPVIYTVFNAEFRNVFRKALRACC

D5 = D5 (Homo sapiens, UniProt P21918); assay: Radioligand binding
DAT [2] = target: DAT (Homo sapiens, UniProt Q01959); assay: Radioligand binding
NET = NET (Homo sapiens, UniProt P23975); assay: Radioligand binding
SERT = SERT (Homo sapiens, UniProt P31645); assay: Radioligand binding
σ1 = σ1 (Rattus norvegicus, UniProt Q9R0C9); assay: Radioligand binding
σ2 = target: T4, σ2 (Rattus norvegicus, UniProt Q5U3Y7); assay: Radioligand binding
T4 sequence (Q5U3Y7 1-176): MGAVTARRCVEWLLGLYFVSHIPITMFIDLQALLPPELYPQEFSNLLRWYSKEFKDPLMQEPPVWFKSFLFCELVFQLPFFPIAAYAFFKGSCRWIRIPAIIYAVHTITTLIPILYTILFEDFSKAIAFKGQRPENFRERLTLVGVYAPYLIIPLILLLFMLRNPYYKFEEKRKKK

Chain of 5-HT5A (P47898 whole entry): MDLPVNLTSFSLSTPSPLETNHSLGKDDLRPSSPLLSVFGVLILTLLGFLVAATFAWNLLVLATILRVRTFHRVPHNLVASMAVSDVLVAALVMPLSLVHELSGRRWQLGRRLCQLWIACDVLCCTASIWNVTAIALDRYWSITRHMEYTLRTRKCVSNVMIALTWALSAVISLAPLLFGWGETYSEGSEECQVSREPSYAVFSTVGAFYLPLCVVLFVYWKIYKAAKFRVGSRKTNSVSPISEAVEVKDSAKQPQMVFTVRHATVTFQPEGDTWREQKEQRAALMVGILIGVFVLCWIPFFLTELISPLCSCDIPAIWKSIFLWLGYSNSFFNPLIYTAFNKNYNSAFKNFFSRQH
Chain of β1 (P08588 whole entry): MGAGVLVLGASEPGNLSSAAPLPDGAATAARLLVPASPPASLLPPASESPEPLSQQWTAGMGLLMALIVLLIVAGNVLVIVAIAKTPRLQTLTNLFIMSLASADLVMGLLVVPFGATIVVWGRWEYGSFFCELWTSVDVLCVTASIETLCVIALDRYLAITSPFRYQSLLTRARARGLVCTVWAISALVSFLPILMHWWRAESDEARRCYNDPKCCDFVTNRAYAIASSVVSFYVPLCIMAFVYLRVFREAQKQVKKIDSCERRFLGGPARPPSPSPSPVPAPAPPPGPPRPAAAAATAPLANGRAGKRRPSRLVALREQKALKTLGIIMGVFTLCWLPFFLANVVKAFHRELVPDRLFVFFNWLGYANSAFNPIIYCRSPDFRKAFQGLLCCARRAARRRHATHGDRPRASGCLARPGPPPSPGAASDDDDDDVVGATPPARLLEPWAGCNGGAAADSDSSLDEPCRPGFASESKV
Chain of 5-HT2B (P41595 whole entry): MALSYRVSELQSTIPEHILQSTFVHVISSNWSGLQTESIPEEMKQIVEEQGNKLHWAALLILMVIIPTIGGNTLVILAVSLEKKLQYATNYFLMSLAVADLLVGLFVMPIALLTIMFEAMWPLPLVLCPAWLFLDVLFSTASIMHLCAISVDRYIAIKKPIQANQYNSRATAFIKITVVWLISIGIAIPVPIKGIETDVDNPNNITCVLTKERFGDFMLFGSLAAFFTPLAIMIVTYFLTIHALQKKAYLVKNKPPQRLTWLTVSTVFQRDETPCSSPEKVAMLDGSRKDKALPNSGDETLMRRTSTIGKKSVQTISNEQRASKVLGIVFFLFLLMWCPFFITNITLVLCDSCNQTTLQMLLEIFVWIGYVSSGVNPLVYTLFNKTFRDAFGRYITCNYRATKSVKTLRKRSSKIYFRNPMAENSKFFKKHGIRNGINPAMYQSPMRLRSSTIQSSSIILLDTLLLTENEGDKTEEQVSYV
Chain of σ1 (Q9R0C9 whole entry): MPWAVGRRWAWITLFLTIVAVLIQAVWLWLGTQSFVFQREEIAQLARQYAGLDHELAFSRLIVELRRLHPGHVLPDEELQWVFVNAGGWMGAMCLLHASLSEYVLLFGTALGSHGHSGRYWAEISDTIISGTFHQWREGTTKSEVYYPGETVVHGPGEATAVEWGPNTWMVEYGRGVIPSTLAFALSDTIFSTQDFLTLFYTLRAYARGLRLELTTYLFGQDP
Chain of 5-HT1E (P28566 whole entry): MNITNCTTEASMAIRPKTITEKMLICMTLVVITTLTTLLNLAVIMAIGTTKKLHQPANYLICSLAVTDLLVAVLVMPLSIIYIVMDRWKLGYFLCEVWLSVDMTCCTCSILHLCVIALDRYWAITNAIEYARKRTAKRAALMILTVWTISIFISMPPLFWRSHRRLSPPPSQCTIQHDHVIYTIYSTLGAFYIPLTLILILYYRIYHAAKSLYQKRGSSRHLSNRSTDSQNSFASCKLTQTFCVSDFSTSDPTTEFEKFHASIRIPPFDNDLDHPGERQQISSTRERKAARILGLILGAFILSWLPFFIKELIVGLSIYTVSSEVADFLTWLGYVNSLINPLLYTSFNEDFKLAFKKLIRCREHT
Chain of DAT (Rattus norvegicus, UniProt P23977) (P23977 whole entry): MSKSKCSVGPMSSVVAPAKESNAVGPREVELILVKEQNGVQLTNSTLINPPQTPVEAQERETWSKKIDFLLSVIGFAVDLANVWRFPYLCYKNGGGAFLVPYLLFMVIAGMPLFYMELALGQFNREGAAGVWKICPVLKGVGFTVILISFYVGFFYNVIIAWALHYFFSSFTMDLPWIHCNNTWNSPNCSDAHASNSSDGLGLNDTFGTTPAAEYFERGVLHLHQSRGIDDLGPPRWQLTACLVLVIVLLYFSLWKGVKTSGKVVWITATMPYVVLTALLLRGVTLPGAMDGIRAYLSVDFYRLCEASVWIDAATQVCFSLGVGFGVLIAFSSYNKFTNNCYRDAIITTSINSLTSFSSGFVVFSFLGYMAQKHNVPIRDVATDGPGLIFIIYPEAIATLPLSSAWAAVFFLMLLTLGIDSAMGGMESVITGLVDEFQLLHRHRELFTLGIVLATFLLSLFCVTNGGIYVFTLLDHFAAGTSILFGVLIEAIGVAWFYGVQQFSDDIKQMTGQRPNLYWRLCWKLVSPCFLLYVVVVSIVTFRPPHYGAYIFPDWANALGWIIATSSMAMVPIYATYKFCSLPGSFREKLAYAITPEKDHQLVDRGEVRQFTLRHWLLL
Chain of NET (P23975 whole entry): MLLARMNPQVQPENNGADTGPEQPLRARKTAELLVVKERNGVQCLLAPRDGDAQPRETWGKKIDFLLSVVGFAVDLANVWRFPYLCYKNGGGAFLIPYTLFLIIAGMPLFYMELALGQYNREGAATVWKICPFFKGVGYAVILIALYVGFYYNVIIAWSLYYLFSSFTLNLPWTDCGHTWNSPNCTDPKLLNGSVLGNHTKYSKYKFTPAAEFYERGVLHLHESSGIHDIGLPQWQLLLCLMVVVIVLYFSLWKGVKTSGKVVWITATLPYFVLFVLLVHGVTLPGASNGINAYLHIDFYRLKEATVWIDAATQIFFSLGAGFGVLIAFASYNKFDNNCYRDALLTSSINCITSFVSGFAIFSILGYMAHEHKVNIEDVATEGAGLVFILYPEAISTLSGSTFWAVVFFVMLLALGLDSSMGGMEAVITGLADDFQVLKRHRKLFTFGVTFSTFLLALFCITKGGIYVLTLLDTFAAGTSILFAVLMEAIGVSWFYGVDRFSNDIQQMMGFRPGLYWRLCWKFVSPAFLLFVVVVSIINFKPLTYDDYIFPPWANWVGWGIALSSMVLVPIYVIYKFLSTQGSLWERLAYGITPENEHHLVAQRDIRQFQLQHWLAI
Chain of 5-HT1D (P28221 whole entry): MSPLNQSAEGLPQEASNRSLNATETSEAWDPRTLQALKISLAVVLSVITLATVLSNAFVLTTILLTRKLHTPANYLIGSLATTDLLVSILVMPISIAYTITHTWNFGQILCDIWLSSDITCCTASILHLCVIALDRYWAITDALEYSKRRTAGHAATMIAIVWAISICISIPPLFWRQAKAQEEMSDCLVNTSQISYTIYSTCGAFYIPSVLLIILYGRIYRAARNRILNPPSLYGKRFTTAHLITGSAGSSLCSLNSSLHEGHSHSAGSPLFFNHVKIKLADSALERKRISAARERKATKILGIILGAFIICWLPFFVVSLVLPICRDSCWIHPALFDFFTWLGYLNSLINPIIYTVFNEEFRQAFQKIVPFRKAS
Chain of DAT (Homo sapiens, UniProt Q01959) (Q01959 whole entry): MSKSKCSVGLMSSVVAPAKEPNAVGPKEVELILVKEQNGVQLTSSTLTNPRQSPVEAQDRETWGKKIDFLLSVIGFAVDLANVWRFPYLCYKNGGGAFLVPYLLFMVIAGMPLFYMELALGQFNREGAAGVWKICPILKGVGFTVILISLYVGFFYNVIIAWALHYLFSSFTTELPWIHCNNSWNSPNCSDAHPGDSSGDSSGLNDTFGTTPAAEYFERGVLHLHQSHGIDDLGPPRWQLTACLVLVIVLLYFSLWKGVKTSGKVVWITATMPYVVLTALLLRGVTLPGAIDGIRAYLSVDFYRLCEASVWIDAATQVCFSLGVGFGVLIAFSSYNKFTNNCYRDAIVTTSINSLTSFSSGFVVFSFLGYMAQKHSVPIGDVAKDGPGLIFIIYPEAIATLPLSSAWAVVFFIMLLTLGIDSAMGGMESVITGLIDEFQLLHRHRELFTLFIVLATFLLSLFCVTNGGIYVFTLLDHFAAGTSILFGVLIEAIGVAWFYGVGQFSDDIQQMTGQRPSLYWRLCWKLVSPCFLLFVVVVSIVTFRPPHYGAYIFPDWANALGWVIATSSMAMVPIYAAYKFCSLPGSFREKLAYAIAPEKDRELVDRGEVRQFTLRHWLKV
Chain of 5-HT2A (P28223 whole entry): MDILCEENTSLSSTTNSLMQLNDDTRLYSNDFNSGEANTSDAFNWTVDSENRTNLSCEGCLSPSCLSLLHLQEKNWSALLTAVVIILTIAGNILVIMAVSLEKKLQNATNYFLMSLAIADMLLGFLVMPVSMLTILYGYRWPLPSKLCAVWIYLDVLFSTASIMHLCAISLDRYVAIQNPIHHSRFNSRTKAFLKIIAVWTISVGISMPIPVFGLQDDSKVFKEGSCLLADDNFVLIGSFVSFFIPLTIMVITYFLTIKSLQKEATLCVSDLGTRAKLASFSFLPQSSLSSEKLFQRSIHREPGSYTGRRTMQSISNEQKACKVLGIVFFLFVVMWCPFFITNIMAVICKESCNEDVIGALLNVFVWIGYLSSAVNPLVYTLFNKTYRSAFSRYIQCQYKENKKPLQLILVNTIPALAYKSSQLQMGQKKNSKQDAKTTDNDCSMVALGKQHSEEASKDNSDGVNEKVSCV

| SMILES | EC50 (DAT [1]) [µM] | DAT/NET ratio (DAT [1]) | DAT/SERT ratio (DAT [1]) | Emax (DAT [1]) [%] | Ki (5-HT1D) [µM] | Ki (5-HT1E) [µM] | Ki (5-HT2A) [µM] | Ki (5-HT2B) [µM] | Ki (5-HT5A) [µM] | Ki (α1B) [µM] | Ki (α1D) [µM] | Ki (β1) [µM] | Ki (β2) [µM] | Ki (D4) [µM] | Ki (D5) [µM] | Ki (DAT [2]) [µM] | Ki (NET) [µM] | Ki (SERT) [µM] | Ki (σ1) [µM] | Ki (σ2) [µM] | also measured |
| --- | --- | --- | --- | --- | --- | --- | --- | --- | --- | --- | --- | --- | --- | --- | --- | --- | --- | --- | --- | --- | --- |
| NC1Cc2ccccc2C1 [2-AI, 2-aminoindan] | 0.439 ± 0.038 | 0.20 | >22.78 | 106 | > 10 | > 10 | > 10 | > 10 | > 10 | > 10 | > 10 | > 10 | > 10 | > 10 | > 10 | > 10 | > 10 | > 10 | > 10 | > 10 |  |
| COc1ccc2c(c1)CC(N)C2 (centres unmarked) [5-MeO-AI, 5-methoxy-2-aminoindan] | 2.65 | 0.33 | 0.05 | 117 | > 10 | > 10 | > 10 | 4.79 | > 10 | > 10 | > 10 | > 10 | > 10 | > 10 | > 10 | > 10 | > 10 | > 10 | > 10 | > 10 | fold lower release potency at DAT (DAT [1]): 20 fold |
| NC1Cc2cc3c(cc2C1)OCO3 [MDAI, 5,6-methylenedioxy-2-aminoindan] | 1.33 | 0.09 | 0.08 | 113 | > 10 | > 10 | > 10 | > 10 | > 10 | > 10 | > 10 | > 10 | > 10 | > 10 | > 10 | > 10 | > 10 | > 10 | > 10 | > 10 | fold lower release potency at DAT (DAT [1]): 10 fold; displacement at 5-HT2B receptor (5-HT2B; at 10 μM, primary binding assay): < 50% |
| COc1cc2c(cc1C)CC(N)C2 (centres unmarked) [MMAI, 5-methoxy-6-methyl-2-aminoindan] | > 10 | >0.31 | > 0.003 |  | 2.56 | > 10 | > 10 | 0.902 ± 0.445 | > 10 | > 10 | > 10 | > 10 | > 10 | > 10 | > 10 | > 10 | > 10 | 4.82 | > 10 | > 10 | fold lower release potency at DAT (DAT [1]): 100 fold |
